Experimental data published in patent US20110262502A1, “PULMONARY DELIVERY OF 17-HYDROXYPROGESTERONE CAPROATE (17-HPC)” (Prairie Pharmaceuticals LLC, priority 2010, published 2011).

How the values were obtained:
[1] = API particle size distribution (Dv(10), Dv(50), Dv(90), Span); format: physicochemical; settings: 5% (w/w) in water, 15% Tween 80, 90 bar
Excerpt: In determining and characterizing particle size, e.g., particle size of an API (active pharmaceutical ingredient), the particle size parameters Dv(10), Dv(50) and Dv(90) may be used. Particle size measurements are preferably expressed in terms of Dv(10), Dv(50), and Dv(90), wherein Dv(10) refers to the particle size below which 10% of the volume of material exists; Dv(50) refers to the particle size below which 50% of the volume of material exists; and Dv(90) refers to the particle size below which 90% of the volume of material exists.
Referring to Table 5, experiments were performed with a suspension comprising the active pharmaceutical ingredient (the API), i.e., 17-HPC was the API in these experiments, wherein 17-HPC was present at approximately five percent (5%) w/w in water; and the suspension also comprised the surfactant Tween 80 at approximately 15% in these experiments (processing conditions conducted at Pressure=90 bar). […] Particle size measurements are expressed in terms of Dv(10), Dv(50), and Dv(90), wherein Dv(10) refers to the particle size below which 10% of the volume of material exists; Dv(50) refers to the particle size below which 50% of the volume of material exists; and Dv(90) refers to the particle size below which 90% of the volume of material exists). […]
Exemplary particle size reduction experiments, and characterization of API (i.e., 17-HPC) particle size distribution, using a suspension prepared without a surfactant. Referring to Table 7, particle size reduction of 17-HPC was observed without using any surfactant. Experiments were performed with a suspension comprising the active pharmaceutical ingredient (the API), i.e., 17-HPC in these experiments, in water and without a surfactant. FIG. 16 depicts an exemplary API particle size distribution profile (17-HPC is the active ingredient) after a spray-drying (SD) process. Referring again to FIG. 16, and also to Table 7, an exemplary 17-HPC particle size distribution profile was obtained after approximately 10 to 55 cycles of milling. API particle size was measured after spray drying (SD). Particle size measurements are expressed in terms of Dv(10), Dv(50), and Dv(90), wherein Dv(10) refers to the particle size below which 10% of the volume of material exists; Dv(50) refers to the particle size below which 50% of the volume of material exists; and Dv(90) refers to the particle size below which 90% of the volume of material exists).

[2] = system: PHA-induced IL-2 production in PBMCs; test: PHA-induced IL-2 production in PBMCs from healthy male smokers (no IL-2/IL-4 added), ELISA; format: cell-based, human; design: PR2005 IC50: unit not given here; settings: for mean IL-2: Table 1; for % inhibition of PHA stimulation of IL-2: Table 2
Procedure: PBMCs were isolated from human blood buffy coats provided by a regional blood center. Random buffy coat cells from male donors were a by-product of blood processed for clinical use and no details (i.e., personal identification and background) were provided except for tobacco use. […] PBMCs were separated using a porous high density polyethylene barrier (HISTOPAQUE from GEHealthcare Bio-Sciences AB (US). After centrifugation of blood samples in each tube (35 minutes at 800×g at room temperature, or RT), PBMCs were collected and washed twice with Hank's buffered saline solution (HBSS). PBMCs were resuspended in RPMI-1640 medium containing 10% fetal calf serum (FCS) and 15 mM glutamine and cells were counted and plated.
PBMCs (2×10^6) were incubated with or without IL-2 (13 ng/ml) and IL-4 (6.5 ng/ml) for 48 hours in RPMI-1640 medium containing 10% FCS and 2 mM glutamine. […] IL-2 and IL-4 stimulated PBMCs were also plated at a concentration of 10^6 cells/ml in 96-well plates ready for PHA (15 μg/mL, 24 hours) stimulation of cytokine release and detection by ELISA.
Serial dilutions of standards and PBMCs' supernatants were measured by enzyme linked immunosorbent assay to determine IL-2 at baseline and its levels after 17HPC, P4 and MAP treatments. Optical density was measured at 450 nm and corrected with 550 nm. The concentration of TL-2 was calculated using the standard curve and taking into account the supernatant dilution used. Detection limit for IL-2 is 4.0 pg/ml.
Data are expressed as mean±SD. The efficacies of the drug treatments were analyzed by paired t-test. One-way analysis of variance was used to compare three or more matched groups and 95% CI was performed to present groups differences. All graphs indicate mean values of results or % inhibition of PHA-stimulated IL-2. IC50 values were calculated by using a sigmoidal model (BioDataFit). A p value <0.05 was considered statistically significant.
(§1) IL-2 levels were quantified using ELISA.
IL-2 levels were quantified using ELISA. IC50 values were calculated by using a sigmoidal model (BioDataFit).
as §1, §1, §1

With `CCCCCC(=O)O[C@]1(C(C)=O)CC[C@H]2[C@@H]3CCC4=CC(=O)CC[C@]4(C)[C@H]3CC[C@@]21C` [17HPC, 17α-HYDROXYPROGESTERONE CAPROATE] the “Particle Size Dv(10)” value ([1]; after 8 cycles) was 1.015 μm, the “Particle Size Dv(50)” value ([1]; after 8 cycles) was 3.021 μm and the “Particle Size Dv(90)” value ([1]; after 8 cycles) was 7.302 μm. For the same compound, the “Particle Size Span” value ([1]; after 8 cycles) was 2.081, the “Particle Size Dv(10)” value ([1]; after 16 cycles) was 1.071 μm and the “Particle Size Dv(50)” value ([1]; after 16 cycles) was 2.574 μm. For the same compound, the “Particle Size Dv(90)” value ([1]; after 16 cycles) was 5.347 μm, the “Particle Size Span” value ([1]; after 16 cycles) was 1.662 and the “Particle Size Dv(10)” value ([1]; after 25 cycles) was 1.014 μm. The “Particle Size Dv(50)” value ([1]; after 25 cycles) was 2.255 μm, the “Particle Size Dv(90)” value ([1]; after 25 cycles) was 4.517 μm and the “Particle Size Span” value ([1]; after 25 cycles) was 1.553. For the same compound, the “PR2005 IC50” value ([2]; Dexamethasone 0) was 6.434, the “suppression of PHA induced IL-2” value ([2]; FIG. 11, 17HPC add-on to Dexamethasone 10^−6 M) was roughly 100% and the “improvements in Dexamethasone efficacy (synergetic effect of combination)” value ([2]; FIG. 12, 17HPC with Dexamethasone) was 25-37%. For the same compound, the “mean IL-2” value ([2]; 17HPC 10^−5M + Dexamethasone 10^−6M) was 24.61 pg/mL, the “mean IL-2” value ([2]; 17HPC 10^−5M + Dexamethasone 10^−8M) was 136.2 pg/mL and the “mean IL-2” value ([2]; 17HPC 10^−5M + Dexamethasone 10^−10M) was 138.6 pg/mL. For the same compound, the “mean IL-2” value ([2]; 17HPC 10^−5M + Dexamethasone 10^−12M) was 176.2 pg/mL, the “mean IL-2” value ([2]; 17HPC 10^−5M, Dexamethasone 0) was 225.6 pg/mL and the “mean IL-2” value ([2]; 17HPC 10^−7M + Dexamethasone 10^−6M) was 9.914 pg/mL. For the same compound, the “mean IL-2” value ([2]; 17HPC 10^−7M + Dexamethasone 10^−8M) was 229.3 pg/mL, the “mean IL-2” value ([2]; 17HPC 10^−7M + Dexamethasone 10^−10M) was 104.5 pg/mL and the “mean IL-2” value ([2]; 17HPC 10^−7M + Dexamethasone 10^−12M) was 111.6 pg/mL. The “mean IL-2” value ([2]; 17HPC 10^−7M, Dexamethasone 0) was 466.3 pg/mL, the “mean IL-2” value ([2]; 17HPC 10^−10M + Dexamethasone 10^−6M) was 27.18 pg/mL and the “mean IL-2” value ([2]; 17HPC 10^−10M + Dexamethasone 10^−8M) was 173.5 pg/mL. For the same compound, the “mean IL-2” value ([2]; 17HPC 10^−10M + Dexamethasone 10^−10M) was 177.7 pg/mL, the “mean IL-2” value ([2]; 17HPC 10^−10M + Dexamethasone 10^−12M) was 132.3 pg/mL and the “mean IL-2” value ([2]; 17HPC 10^−10M, Dexamethasone 0) was 420.6 pg/mL. For the same compound, the “mean IL-2” value ([2]; 17HPC 10^−11M + Dexamethasone 10^−6M) was 9.05 pg/mL, the “mean IL-2” value ([2]; 17HPC 10^−11M + Dexamethasone 10^−8M) was 167.9 pg/mL and the “mean IL-2” value ([2]; 17HPC 10^−11M + Dexamethasone 10^−10M) was 164.4 pg/mL. The “mean IL-2” value ([2]; 17HPC 10^−11M + Dexamethasone 10^−12M) was 275.2 pg/mL, the “mean IL-2” value ([2]; 17HPC 10^−11M, Dexamethasone 0) was 448.2 pg/mL and the “% inhibition of PHA stimulation of IL-2” value ([2]; 17HPC 10^−5 M + Dexamethasone 10^−6 M) was 97%. The “% inhibition of PHA stimulation of IL-2” value ([2]; 17HPC 10^−5 M + Dexamethasone 10^−8 M) was 81%, the “% inhibition of PHA stimulation of IL-2” value ([2]; 17HPC 10^−5 M + Dexamethasone 10^−10 M) was 81% and the “% inhibition of PHA stimulation of IL-2” value ([2]; 17HPC 10^−5 M + Dexamethasone 10^−12 M) was 76%. The “% inhibition of PHA stimulation of IL-2” value ([2]; 17HPC 10^−5 M, Dexamethasone 0 M) was 69%, the “% inhibition of PHA stimulation of IL-2” value ([2]; 17HPC 10^−7 M + Dexamethasone 10^−6 M) was 99% and the “% inhibition of PHA stimulation of IL-2” value ([2]; 17HPC 10^−7 M + Dexamethasone 10^−8 M) was 69%. The “% inhibition of PHA stimulation of IL-2” value ([2]; 17HPC 10^−7 M + Dexamethasone 10^−10 M) was 86%, the “% inhibition of PHA stimulation of IL-2” value ([2]; 17HPC 10^−7 M + Dexamethasone 10^−12 M) was 85% and the “% inhibition of PHA stimulation of IL-2” value ([2]; 17HPC 10^−7 M, Dexamethasone 0 M) was 37%. The “% inhibition of PHA stimulation of IL-2” value ([2]; 17HPC 10^−10 M + Dexamethasone 10^−6 M) was 96%, the “% inhibition of PHA stimulation of IL-2” value ([2]; 17HPC 10^−10 M + Dexamethasone 10^−8 M) was 76% and the “% inhibition of PHA stimulation of IL-2” value ([2]; 17HPC 10^−10 M + Dexamethasone 10^−10 M) was 76%. For the same compound, the “% inhibition of PHA stimulation of IL-2” value ([2]; 17HPC 10^−10 M + Dexamethasone 10^−12 M) was 82%, the “% inhibition of PHA stimulation of IL-2” value ([2]; 17HPC 10^−10 M, Dexamethasone 0 M) was 43% and the “% inhibition of PHA stimulation of IL-2” value ([2]; 17HPC 10^−11 M + Dexamethasone 10^−6 M) was 99%. The “% inhibition of PHA stimulation of IL-2” value ([2]; 17HPC 10^−11 M + Dexamethasone 10^−8 M) was 77%, the “% inhibition of PHA stimulation of IL-2” value ([2]; 17HPC 10^−11 M + Dexamethasone 10^−10 M) was 78% and the “% inhibition of PHA stimulation of IL-2” value ([2]; 17HPC 10^−11 M + Dexamethasone 10^−12 M) was 63%. The “% inhibition of PHA stimulation of IL-2” value ([2]; 17HPC 10^−11 M, Dexamethasone 0 M) was 39%, the IL-2 inhibition ([2]; add-on of low doses of 17HPC (10^−11 M or 10^−10 M) to lower Dexamethasone doses) was no less than 78% and the “effect in basal IL-2 level” value ([2]; no PHA stimulation, data not shown) was “no significant effect”. For the same compound, the “PR2005 IC50” value ([2]; with Dexamethasone 10^−8M) was 6.243, the “PR2005 IC50” value ([2]; with Dexamethasone 10^−10M) was 11.64 and the “PR2005 IC50” value ([2]; with Dexamethasone 10^−12M) was 10.92.
